Test [1] has as its system G-361 human melanoma cells. Put plainly: G-361 cellular xenograft model, antitumor efficacy. Type of test: in vivo, mice. The settings on record: G-361 xenograft. Here is the method:
(§1) SK23-MEL and G-361 cells were injected s.c. (in both cases, 1×10^6) into the right flank of NOD/SCID and SCID male mice, respectively. Animals were randomly divided in groups of 6 mice and treatments were started at day 10 (SK23-MEL) and 14 (G-361), when tumors were clearly palpable.
(§2) Primary tumor growth was determined for all animals by caliper measurement (minor and major axis length), three times per week, until they were sacrificed. Primary tumor volume was determined using the following equation: V (cm^3)=(α^2×β)/2 (Eq. 3)
(§3) The efficacy of the treatment was also analyzed by calculation of the percentage of Increase in Life Span (% ILS), since this analysis gives an evidence of clinical potency. Survival endpoint for each animal was fixed at the day when tumor volume reached 1.0 cm^3 (A375) or 0.4 cm^3 (SK23-MEL and G-361), and data were used to plot the relative Kaplan-Meier curves. Treatment efficacy was then evaluated by comparing the Median Survival Time (MST) of treated group with the MST of control group, and expressed as percentage of ILS: % ILS=[100×(MSTtreated group)/(MSTcontrol group)]−100 (Eq. 4)
(§4) Treatment was considered effective when % ILS > 20%.

Test [2] has as its system A375 cells. In words: Caspase-3 activity in cell lysates. The class given is cell-based, human. The conditions noted are these: A375, 10 μM. Here is the method:
(§5) Apoptosis was confirmed by measuring caspase-3 activity, at 25°C, in total cell lysates, using the model fluorescent peptide substrate N-Acetyl-Asp-Glu-Val-Asp-7-amido-4-trifluoromethylcoumarin (Ac-DEVD-AFC). […] Caspase activity was expressed as change in fluorescence per min, per 10^6 cells.

In test [3] the test system is SK23-MEL cells. Put plainly: Caspase-3 activity in cell lysates. The class given is cell-based, human. The settings on record: 7 μM. Here is the method:
as §5

Test [4] has as its system SK23-MEL human melanoma cells. In words: SK23-MEL cellular xenograft model, antitumor efficacy. The class given is in vivo, mice. The settings on record: 8 mg/kg/day i.v. or oral, q1dx5 three weeks. Here is the method: as §1, §2, §3, §4
A further test concerns SK23-MEL tumors. In words: Histological analysis of SK23-MEL tumors. The class given is in vivo, mice. The conditions noted are these: SK23-MEL xenografts, MC3181-treated. The text has this:
At sacrifice, tumors were removed, formalin-fixed and paraffin embedded. All internal organs were fixed and paraffin embedded for the morphological study to evaluate drug effects in normal tissues. Three μm-thick sections were cut and stained with haematoxylin and eosin (H&E). Two observers blindly classified the tissues for necrotic areas, evaluated as percent of total area, mitosis number in 10 high power field randomly selected away from the ischemic necrosis.

In another test the target is T1, GSTM2-2 (Homo sapiens, UniProt P28161).
T1 construct: made in house; host or cells: Escherichia coli
T1 sequence (P28161 1-218): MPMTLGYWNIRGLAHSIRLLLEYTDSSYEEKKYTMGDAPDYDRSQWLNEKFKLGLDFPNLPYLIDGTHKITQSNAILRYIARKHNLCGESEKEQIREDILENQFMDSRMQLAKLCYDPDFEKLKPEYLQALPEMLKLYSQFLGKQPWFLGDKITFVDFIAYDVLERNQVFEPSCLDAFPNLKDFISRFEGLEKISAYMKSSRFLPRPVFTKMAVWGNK
Put plainly: Inhibition of GSTM2-2 conjugation activity. The settings on record: GSTM2-2 5 nM. The class given is biochemical. Here is the method:
Human GSTM2-2, GSTP1-1, JNK1a2 and TRAF2 were expressed in Escherichia coli and purified as previously described; protein concentration was determined using the Lowry colorimetric assay. Unless specified otherwise, all chemicals were purchased from Sigma-Aldrich S.r.l. (Milan, Italy).
GST activity was determined spectrophotometrically at 340 nm (ε = 9,600 M^−1 cm^−1), as previously reported. Inhibition experiments were performed by measuring GSTP1-1 (20 nM) or GSTM2-2 (5 nM) activities in the presence of various amounts of the selected NBD derivative (from 0.1 to 20 μM with GSTP1-1, and from 0.005 and 1 μM with GSTM2-2). Fifty percent inhibitory concentration (IC50) values were calculated by fitting the data to Equation 1, where ν is the percentage of the saturated binding sites; [P]t is the total GST concentration and [L]t is the total inhibitor concentration, assuming a 1:1 interaction stoichiometry between the inhibitor and one GST subunit, as well as that the binding sites are equal and independent.

Test [5] concerns SK23-MEL cells. Put plainly: Melanin content. The settings on record: 7 μM, 48 hrs, p < 0.05. The class given is cell-based, human. Here is the method: Cells (1×10^6) were lysed in 1M NaOH at 100°C, for 1 hour and then centrifuged at 15,000 g, for 20 minutes. […] Tyrosinase activity was examined by measuring spectrophotometrically at 475 nm the rate of L-DOPA oxidation to dopachrome over 1 hour at 37°C. Cells [1×10^6 in 40 μl of 20 mM potassium phosphate buffer (pH 6.8) containing 1% Triton X-100 and 1 mM PMSF] were disrupted by freezing and thawing and centrifuged at 15,000 g for 20 minutes at 4°C. The assay was started by addition of 100 μl of 2 mg/ml L-DOPA to 40 μl of supernatant. Tyrosinase activity was expressed as change in absorbance, per hour, per 10^6 cells.

Test [6] concerns A375 cells. Put plainly: Cell cycle analysis (PI, flow cytometry). The settings on record: A375, 10 μM. Type of test: cell-based, human. Here is the method: (§6) A375 and SK23-MEL cells, were fixed with 70% ethanol overnight, stained with PI staining buffer ([…] and 1% Triton X-100) and analyzed by a FACSCalibur (BD Bioscence, San Jose, CA, USA). The percentage of early apoptotic, late apoptotic, and necrotic cells was determined by simultaneous staining of cells with PI (2 μg/ml) and Annexin V-FITC (0.5 μg/ml) (Sigma Aldrich), according to manufacturer's protocol. Flow cytometric data were analyzed by the FlowJo 8.8.6 software (Tree Stare, Inc, Ashland, OR, USA).

The subject of test [7] is SK23-MEL cells. Put plainly: Cell cycle analysis (PI, flow cytometry). The class given is cell-based, human. The conditions noted are these: 7 μM. Here is the method: as §6
For orientation: Flow cytometry measures light scatter and fluorescence of single cells or particles in a stream.

The record followed here is PMC4414177, “A novel orally active water-soluble inhibitor of human glutathione transferase exerts a potent and selective antitumor activity against human melanoma xenografts” (Oncotarget, 2015).

The ILS is how much longer treated animals lived than controls. Higher therefore signals much gain in survival. For orientation: IC50 means the concentration that inhibits the measured activity by half. Read a high IC50 as lower potency.

Bounds are passed on as bounds.

For the compound `O=[N+]([O-])c1ccc(SCCOCCOCCO)c2nonc12` [MC3181, 2-(2-(2-((7-nitrobenzo[c][1,2,5]oxadiazol-4-yl)thio)ethoxy)ethoxy)ethanol], the “animals still alive at the end of the observation period” value in test [1] (8 mg/kg/day oral) was 50%. Besides, the disease course entry in test [1] (8 mg/kg/day oral) is “stabilization and regression of the disease in half of the treated mice”. The tumor growth result in test [1] (8 mg/kg/day, both administration routes (i.v., oral)) is “significant delay in tumor growth”; in test [4], “a certain degree of delay in tumor growth”. Also, the caspase-3 activation result in the test with A375 cells [2] was “strong caspase-3 activity”; in the test on SK23-MEL cells [3] it was “negligible increase of proteolitic activity”. This compound also returned an ILS in test [4] below 20%. Besides, the tumor histology entry with SK23-MEL tumors is “melanin production”. The compound further came in with an IC50 at GSTM2-2 of 81 ± 13 nM. The melanin content entry with SK23-MEL cells [5] is “significant increase”. Also, the results for the “increase in the amount of cells in the sub-G1 phase” value in the test on A375 cells [6] (24 hrs) and in the test with A375 cells [6] (48 hrs) were “about 27%” and around 36%, respectively. For the same compound, the “increase in the number of cells in sub-G1 phase” value in the test on SK23-MEL cells [7] (24 hrs) is listed as “about 10%”; with SK23-MEL cells [7] (48 hrs), around 20%.
